Patent EP4745134A1 (Jiangsu Yahong Meditech Co., Ltd., priority 2023, dated 2025)
Like-named read-outs stand apart in the source and are kept apart here.

Columns and labels:
HCT116 MTAP KO cells = experiment: Inhibitory activity against cell proliferation (CellTiter Glo, 6 days), HCT116 MTAP KO; assay type: cell-based; settings: for Selectivity HCT 116-WT/ HCT116 MTAP KO: ratio of IC50 HCT116-WT / HCT116 MTAP KO
Summary of the method: (§1)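 Luminescence read-out (CellTiter Glo, 10 min shaking at room temperature) after 6 days of compound exposure; IC50 fitted against DMSO controls. Top dose 10000 nM, 4-fold steps, 8 points; 250 cells/well in McCoy's 5A + 10% FBS.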

PRMT5-MTA = PRMT5-MTA (Homo sapiens, UniProt O14744); experiment: Enzymatic inhibitory activity against PRMT5-MTA (AlphaScreen); assay type: biochemical
Summary of the method: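 PRMT5/[…] (1 nM) was preincubated for 30 min at room temperature with 1 µM […] and 2.5 µM SAM, then exposed to compound (10-point, 3-fold from 1000 nM) for 15 min at 23 °C. Histone H4 substrate (5 nM) was added and reacted for 45 min at 23 °C. Symmetric dimethyl-R3 H4 was detected by AlphaScreen and IC50 calculated.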

HCT116-WT cells = experiment: Inhibitory activity against cell proliferation (CellTiter Glo, 6 days), HCT116-WT; assay type: cell-based
Summary of the method: as §1

[1] = Homo sapiens, HCT-116, 144 h, HCT116 MTAP KO cells, 6 days, CellTiter Glo, read-out: HCT116 MTAP KO IC50
[2] = 144 h, HCT116-WT cells, 6 days, CellTiter Glo, read-out: HCT116-WT IC50

Sequence of PRMT5-MTA (O14744 whole entry): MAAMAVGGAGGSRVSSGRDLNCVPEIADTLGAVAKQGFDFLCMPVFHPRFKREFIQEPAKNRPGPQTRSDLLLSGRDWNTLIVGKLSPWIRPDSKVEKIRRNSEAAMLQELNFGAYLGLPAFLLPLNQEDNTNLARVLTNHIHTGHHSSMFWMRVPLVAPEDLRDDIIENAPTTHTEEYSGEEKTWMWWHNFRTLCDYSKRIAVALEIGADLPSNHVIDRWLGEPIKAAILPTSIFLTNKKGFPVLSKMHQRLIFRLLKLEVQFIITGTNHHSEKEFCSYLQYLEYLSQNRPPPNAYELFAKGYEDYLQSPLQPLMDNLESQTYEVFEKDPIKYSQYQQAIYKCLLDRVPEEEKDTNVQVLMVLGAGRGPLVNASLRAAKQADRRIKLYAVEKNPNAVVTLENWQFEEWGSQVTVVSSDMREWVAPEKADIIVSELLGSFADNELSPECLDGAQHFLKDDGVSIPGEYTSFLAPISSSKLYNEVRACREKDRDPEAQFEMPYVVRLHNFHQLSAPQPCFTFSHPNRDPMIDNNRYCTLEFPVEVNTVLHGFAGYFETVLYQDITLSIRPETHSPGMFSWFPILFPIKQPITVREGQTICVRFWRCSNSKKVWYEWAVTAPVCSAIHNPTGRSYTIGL
Sequence of PRMT5-MTA (Q9BQA1 whole entry partner): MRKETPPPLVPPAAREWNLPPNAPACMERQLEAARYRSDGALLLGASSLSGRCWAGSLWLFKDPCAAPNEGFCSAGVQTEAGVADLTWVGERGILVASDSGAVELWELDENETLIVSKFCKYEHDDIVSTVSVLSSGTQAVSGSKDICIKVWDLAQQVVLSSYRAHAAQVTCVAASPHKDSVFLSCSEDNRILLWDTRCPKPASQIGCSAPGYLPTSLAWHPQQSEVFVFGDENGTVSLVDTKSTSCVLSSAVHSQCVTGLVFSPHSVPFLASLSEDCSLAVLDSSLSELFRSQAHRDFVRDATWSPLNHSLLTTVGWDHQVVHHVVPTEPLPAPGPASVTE

Row | Compound | IC50 (HCT116 MTAP KO cells; [1]) [nM] | Selectivity HCT 116-WT/ HCT116 MTAP KO (HCT116 MTAP KO cells) | IC50 (PRMT5-MTA; read-out: IC50) [nM] | IC50 (HCT116-WT cells; [2]) [nM] | IC50 (HCT116 MTAP KO cells; HCT116 MTAP KO cells, 6 days, CellTiter Glo, read-out: HCT116 MTAP KO IC50) [nM] | IC50 (HCT116-WT cells; HCT116-WT cells, 6 days, CellTiter Glo, read-out: HCT116-WT IC50) [nM] | IC50 (HCT116 MTAP KO cells; Homo sapiens, HCT-116, 144 h, read-out: HCT116 MTAP KO IC50 (nM)) [nM] | IC50 (PRMT5-MTA) [nM] | IC50 (HCT116-WT cells; 144 h, read-out: HCT116-WT IC50 (nM)) [nM]
1 | Cc1cc2cc(C(=O)N(Cc3ccc(-c4cccnc4)cn3)N(C)c3ncccc3F)ccc2nc1N [Example 163, N-([3,3'-bipyridine]-6-ylmethyl)-2-amino -N'-(3-fluoropyridin-2-yl)-N',3-dimethylq uinoline-6-carbohydrazide] | 15 | 31.00 | 1.4 | 465 |  |  |  |  | 
2 | CN(c1ccccc1)N(Cc1ccc(C(F)(F)F)cn1)C(=O)c1ccc2nc(N)c3cnn(C)c3c2c1 [Example 15, 4-amino-N',1-dimethyl-N'-phenyl-N-((5-(trifluoromethyl)pyridin-2-yl)methyl)-1H-pyrazolo[4,3-c]quinoline-8-carbohydrazide] |  | 18.27 | 3.7 |  | 26 | 475 |  |  | 
3 | Cc1cc2nc(N)c3cnn(C)c3c2cc1C(=O)N1CC(C)CN1c1ncc(-c2nncs2)cc1F (stereo not shown) [Example 487, (4-amino-1,7-dimethyl-1H-pyrazolo[4,3-c]quinolin-8-yl)(2-(3-fluoro-5-(1,3,4-thiadiazol-2-yl)pyridin-2-yl)-4-methylpyrazolidin-1-yl)methanone] | 58 | 40.52 | 6.7 | 2350 |  |  |  |  | 
4 | Cc1cc2nc(N)c3cnn(C)c3c2cc1C(=O)N1CC(C)CN1c1cccc(C2CC2)n1 (stereo not shown) [Example 405, (4-amino-1,7-dimethyl-1H-pyrazolo[4,3-c]quinolin-8-yl)(2-(6-cyclopropylpyridin-2-yl) -4-methylpyrazolidin-1-yl)methanone] | 29 | 31.93 | 12.3 | 926 |  |  |  |  | 
5 | Cc1cc2nc(N)c3cnn(C)c3c2cc1C(=O)N1CC(CO)CN1c1ncccc1F (stereo not shown) [Example 358, (4-amino-1,7-dimethyl-1H-pyrazolo[4,3-c]quinolin-8-yl)(2-(3-fluoropyridin-2-yl)-4-(hydroxymethyl)pyrazolidin-1-yl)methanone] | 303 | >33.00 | 6.7 | > 10000 |  |  |  |  | 
6 | [2H]C([2H])([2H])c1cc2cc(C(=O)N(Cc3ccc(C(F)(F)F)cn3)N(c3ncccn3)C([2H])([2H])[2H])ccc2nc1N [Example 311, 2-amino-N',3-bis(methyl-D3)-N'-(pyrimidin-2-yl)-N-((5-(trifluoromethyl)pyridin-2-yl)methyl)quinoline-6-carbohydrazide] | 59 | 29.78 | 3 | 1760 |  |  |  |  | 
7 | Cc1cc2cc(C(=O)N(Cc3ccc(Br)cc3F)N(C)c3nccc4nccnc34)ccc2nc1N [Example 72, 2-amino-N-(4-bromo-2-fluorobenzyl)-N', 3-dimethyl-N'-(pyrido[3,4-b]pyrazin-5-yl)quinoline-6-carbohydrazide] | 92 | 17.50 | 2.7 | 1610 |  |  |  |  | 
8 | Cc1cc2cc(C(=O)N(Cc3cc4cccc(F)c4cn3)N(C)c3ncccn3)ccc2nc1N [Example 123, 2-amino-N-((8-fluoroisoquinolin-3-yl)methyl)-N',3-dimethyl-N'-(pyrimidin-2-yl)quinoline-6-carbohydrazide] | 88 | 21.61 | 2.9 | 1900 |  |  |  |  | 
9 | Cc1cc2nc(N)c3cnn(C)c3c2cc1C(=O)N1CC(F)(F)CN1c1ncccc1F [Example 455, (4-amino-1,7-dimethyl-1H-pyrazolo[4,3-c]quinolin-8-yl)(4,4-difluoro-2-(3-fluoropyridin-2-yl)pyrazolin-1-yl)methanone] | 9.5 | 32.11 | 10.1 | 305 |  |  |  |  | 
10 | Cc1cc2cc(C(=O)N(Cc3ccc(-c4ccc(N5CCOCC5)nc4)cn3)N(C)c3ncccn3)ccc2nc1N [Example 176, 2-amino-N',3-dimethyl-N-((6'-morpholinyl-[3,3'-bipyridine]-6-yl)methyl)-N'-(pyrimidin-2-yl)quinoline-6-carbohydrazide] | 57 | 17.49 | 2 | 997 |  |  |  |  | 
11 | Cn1ncc2c(N)nc3cc(Cl)c(C(=O)N4CC(F)(F)CN4c4cccc(F)n4)cc3c21 [Example 462, (4-amino-7-chloro-1-methyl-1H-pyrazolo [4,3-c]quinolin-8-yl)(4,4-difluoro-2-(6-fluoropyridin-2-yl)pyrazolidin-1-yl)methanone] | 30 | 16.13 | 6 | 484 |  |  |  |  | 
12 | CC1CN(C(=O)c2cc3c(cc2Cl)nc(N)c2cnn(C)c23)N(c2ncccc2F)C1 (stereo not shown) [Example 398, (4-amino-7-chloro-1-methyl-1H-pyrazolo [4,3-c]quinolin-8-yl)(2-(3-fluoropyridin-2-yl)-4-methylpyrazolidin-1-yl)methanone] | 39 | 41.49 | 3.9 | 1620 |  |  |  |  | 
13 | Cc1cc2cc(C(=O)N(Cc3ccc(-c4cnn(C5CC5)c4)cn3)N(C)c3ncccn3)ccc2nc1N [Example 192, 2-amino-N-((5-(1-cyclopropyl-1H-pyrazol-4-yl)pyridin-2-yl)methyl)-N',3-dimethyl -N'-(pyrimidin-2-yl)quinoline-6-carbohydrazide] | 44 | 27.66 | 2.1 | 1220 |  |  |  |  | 
14 | Cc1cc2nc(N)c3cnn(C)c3c2cc1C(=O)N(C)N1CCc2ccccc21 [Example 279] |  |  |  |  |  |  | 284 | 4.3 | > 10000
15 | C=Cc1cccnc1N(C)N(Cc1ccc(C(F)(F)F)cn1)C(=O)c1ccc2nc(N)c(C)cc2c1 [Example 133, 2-amino-N',3-dimethyl-N-((5-(trifluoromethyl)pyridin-2-yl)methyl)-N'-(3-vinylpyridin-2-yl)quinoline-6-carbohydrazide] | 312 | 10.89 | 3.6 | 3400 |  |  |  |  | 
16 | Cc1cc2cc(C(=O)N(Cc3ccc4ncccc4n3)N(C)c3ncccn3)ccc2nc1N [Compound 283, N-((1,5-naphthyridin-2-yl)methyl)-2-ami no-N',3-dimethyl-N'-(pyrimidin-2-yl)qui noline-6-carbohydrazide] | 244 | 11.11 | 1.7 | 2710 |  |  |  |  | 
17 | Cc1cc2cc(C(=O)N(Cc3ccc(C(F)(F)F)cn3)N(C)c3nccc4occc34)ccc2nc1N [Example 42, 2-amino-N'-(furo[3,2-c]pyridin-4-yl)-N', 3-dimethyl-N-((5-(trifluoromethyl)pyridin-2-yl)methyl)quinoline-6-carbohydrazide] | 49 | 54.14 | 3 | 2650 |  |  |  |  | 
18 | Cc1cc2cc(C(=O)N(Cc3ccc(Br)cn3)N(C)c3nccc4nccnc34)ccc2nc1N [Example 73, 2-amino-N-((5-bromopyridin-2-yl)methyl)-N',3-dimethyl-N'-(pyrido[3,4-b]pyrazin-5-yl)quinoline-6-carbohydrazide] | 40 | 29.88 | 2.5 | 1200 |  |  |  |  | 
19 | Cc1cc2nc(N)c3cnn(C)c3c2cc1C(=O)N1CC(C)CN1c1ncc(C#CCF)cc1F (stereo not shown) [Example 495, (4-amino-1,7-dimethyl-1H-pyrazolo[4,3-c]quinolin-8-yl)(2-(3-fluoro-5-(3-fluoroprop-1-yn-1-yl)pyridin-2-yl)-4-methylpyrazolidin-1-yl)methanone] | 69 | 24.00 | 15 | 1660 |  |  |  |  | 
20 | [2H]C([2H])([2H])c1cc2cc(C(=O)N(Cc3ccc(C(F)(F)F)cn3)N(C)c3ncccn3)ccc2nc1N [Example 310, 2-amino-N'-methyl-3-(methyl-d3)-N'-(pyrimidin-2-yl)-N-((5-(trifluoromethyl)pyridin-2-yl)methyl)quinoline-6-carbohydrazide] | 33 | 34.09 | 1.8 | 1120 |  |  |  |  | 
21 | COCC1CN(C(=O)c2cc3c(cc2C)nc(N)c2cnn(C)c23)N(c2ncccc2F)C1 (stereo not shown) [Example 357] | 16 | 53.25 |  | 852 |  |  |  | 3.4 | 
22 | Cc1cc2nc(N)c3cnn(C)c3c2cc1C(=O)N1CC(C)CN1c1ncc(-c2cccnc2)cc1F (stereo not shown) [Example 484, (4-amino-1,7-dimethyl-1H-pyrazolo[4,3-c]quinolin-8-yl)(2-(5-fluoro-[3,3'-bipyridine]-6-yl)-4-methylpyrazolidin-1-yl)metha none] | 15 | 55.73 | 6.4 | 836 |  |  |  |  | 
23 | Cc1cc2cc(C(=O)N(Cc3ccc(Br)cn3)N(C)c3ncccc3F)ccc2nc1N [Example 48, 2-amino-N-((5-bromopyridin-2-yl)methyl)-N'-(3-fluoropyridin-2-yl)-N',3-dimethyl quinoline-6-carbohydrazide] | 13 | 35.85 | 3.7 | 466 |  |  |  |  | 
